Data on 3 substances can be found in patent publication US8637484B2, “Modulation of growth hormone receptor expression and insulin-like growth factor expression” (Antisense Therapeutic Limited, priority 2003, dated 2014).

In data set [1] the test system is mouse growth hormone receptor mRNA. In words: Inhibition of mouse growth hormone receptor mRNA levels in b.END cells, quantitative real-time PCR. Format: cell-based. On the set-up: % INHIB: concentration or dose not given beside the values. Conditions: mouse growth hormone receptor mRNA, b.END cells, averages from three experiments. On the procedure: The mouse brain endothelial cell line b.END was obtained from Dr. Werner Risau at the Max Plank Instititute (Bad Nauheim, Germany). b.END cells were routinely cultured in DMEM, high glucose (Gibco/Life Technologies, Gaithersburg, Md.) supplemented with 10% fetal calf serum (Gibco/Life Technologies, Gaithersburg, Md.). Cells were routinely passaged by trypsinization and dilution when they reached 90% confluence. Cells were seeded into 96-well plates (Falcon-Primaria #3872) at a density of 3000 cells/well for use in RT-PCR analysis.
When cells reached 65-75% confluency, they were treated with oligonucleotide. For cells grown in 96-well plates, wells were washed once with 100 μL OPTI-MEM™-1 reduced-serum medium (Invitrogen Corporation, Carlsbad, Calif.) and then treated with 130 μL of OPTI-MEM™-1 containing 3.75 μg/mL LIPOFECTIN™ (Invitrogen Corporation, Carlsbad, Calif.) and the desired concentration of oligonucleotide. Cells are treated and data are obtained in triplicate. After 4-7 hours of treatment at 37° C., the medium was replaced with fresh medium. Cells were harvested 16-24 hours after oligonucleotide treatment.
Total RNA was isolated using an RNEASY 96™ kit and buffers purchased from Qiagen Inc. (Valencia, Calif.) following the manufacturer's recommended procedures. Briefly, for cells grown on 96-well plates, growth medium was removed from the cells and each well was washed with 200 μL cold PBS. 150 μL Buffer RLT was added to each well and the plate vigorously agitated for 20 seconds. 150 μL of 70% ethanol was then added to each well and the contents mixed by pipetting three times up and down. The samples were then transferred to the RNEASY 96™ well plate attached to a QIAVAC™ manifold fitted with a waste collection tray and attached to a vacuum source. Vacuum was applied for 1 minute. 500 μL of Buffer RW1 was added to each well of the RNEASY 96™ plate and incubated for 15 minutes and the vacuum was again applied for 1 minute. An additional 500 μL of Buffer RW1 was added to each well of the RNEASY 96™ plate and the vacuum was applied for 2 minutes. 1 mL of Buffer RPE was then added to each well of the RNEASY 96™ plate and the vacuum applied for a period of 90 seconds. The Buffer RPE wash was then repeated and the vacuum was applied for an additional 3 minutes. The plate was then removed from the QIAVAC™ manifold and blotted dry on paper towels. The plate was then re-attached to the QIAVAC™ manifold fitted with a collection tube rack containing 1.2 mL collection tubes. RNA was then eluted by pipetting 140 μL of RNAse free water into each well, incubating 1 minute, and then applying the vacuum for 3 minutes.
Quantitation of growth hormone receptor mRNA levels was accomplished by real-time quantitative PCR using the ABI PRISM™ 7600, 7700, or 7900 Sequence Detection System (PE-Applied Biosystems, Foster City, Calif.) according to manufacturer's instructions. This is a closed-tube, non-gel-based, fluorescence detection system which allows high-throughput quantitation of polymerase chain reaction (PCR) products in real-time. As opposed to standard PCR in which amplification products are quantitated after the PCR is completed, products in real-time quantitative PCR are quantitated as they accumulate. This is accomplished by including in the PCR reaction an oligonucleotide probe that anneals specifically between the forward and reverse PCR primers, and contains two fluorescent dyes. A reporter dye (e.g., FAM or JOE, obtained from either PE-Applied Biosystems, Foster City, Calif., Operon Technologies Inc., Alameda, Calif. or Integrated DNA Technologies Inc., Coralville, Iowa) is attached to the 5′ end of the probe and a quencher dye (e.g., TAMRA, obtained from either PE-Applied Biosystems, Foster City, Calif., Operon Technologies Inc., Alameda, Calif. or Integrated DNA Technologies Inc., Coralville, Iowa) is attached to the 3′ end of the probe. […]
(Real-time PCR tracks product formation cycle by cycle.)

For data set [2], the system named is growth hormone receptor. The experiment in a line: [125I] hGH specific binding assay on liver microsomal membranes of treated mice. Type of data set: in vivo, mouse. On the procedure: Specific binding assays were carried out with liver tissue using iodinated human growth hormone [^125I] hGH.
Microsomal membrane preparations were obtained as follows. 400 mg of tissue powder was homogenized in cold homogenizing buffer (50 mM Tris/HCl, 250 mM sucrose, pH 7.4). This was centrifuged at 2000 rpm for 10 min at 3° C. and the supernatant was saved. This was centrifuged again at 15,000 rpm for 20 min. Pellets were resuspended in 0.5 ml of RRA buffer with inhibitor (50 mM Tris, 20 mM MgC12, pH 7.4). Microsomal preparation samples were stored at −80° C. until the specific binding assay.
The [^125I] hGH specific binding assay was done as follows. Four glass tubes were set up for each sample, two for (−), two for (+). Different sample and solutions were added in each tube as follows (i) 0.2 ml RRA buffer (50 mM Tris, 20 mM MgCl2, 0.1% BSA, pH 7.4); (ii) 0.1 ml membrane (1/2 or 1/4 dilution); (iii) 0.1 ml bGH (10 μg/ml) for the (+) tube or 0.1 ml RRA buffer for the (−) tube; and (iv) 0.1 ml [^125I]-hGH tracer.
Samples were incubated at 4° C. with shaking overnight. The reaction was stopped with 2.5 ml of cold RRA, and the sample centrifuged at 2800 rpm for 25 min at 4° C. Supernatant was aspirated and pellets counted using the γ-counter. The specific binding capacity was calculated as: CPM(−)-CPM(+) Protein content of the microsomal samples was determined by the BCA protein assay.
In general terms: Microsomes from liver hold many membrane-bound enzymes, among them those of drug oxidation.

The subject of data set [3] is growth hormone receptor mRNA. In words: Growth hormone receptor mRNA levels in liver, two-week mouse study. Conditions: 30 mg/kg. Format: in vivo. How it is done:
(§1) A two-week study was done in similar fashion to the one-week study in Example 18, this time using ISIS 227446 at doses of 3, 5, 10, 20 and 30 mg/kg. The mismatch control was given at the same doses. Mice were treated with antisense compound or saline every other day for 14 days.
Growth hormone receptor mRNA levels in liver tissue samples from treated and untreated mice in this two-week study were assayed. The growth hormone receptor antisense inhibitor ISIS 227446 reduced growth hormone receptor mRNA levels in liver after the two-week study by 50% at the 20 mg/kg dose relative to saline control (p<0.001). The 30 mg/kg dose of ISIS 227446 yielded a 53% decrease in growth hormone receptor mRNA (p<0.0001). The mismatch control oligonucleotide ISIS 261303 (SEQ ID NO: 267), at 30 mg/kg, reduced growth hormone receptor mRNA levels by approximately 3%.

The subject of data set [4] is serum insulin-like growth factor-I. In words: Serum IGF-I by radioimmunoassay, 1 week pilot study in Balb/C(a) mice. Format: in vivo, mouse. Conditions: for % IGF-I reduction: 30 mg/kg once every 2 days, serum IGF-I at day 7 compared to saline control at day 7. On the procedure: Forty male Balb/C(a) mice weighing 9 to 10 g were placed into cages, 4 animals per cage, and allowed to assimilate into their environment with new littermates ˜1 week prior (Day −7) to the commencement of 1 week study. Mice of this age would be at their maximum growth rate. Their body weights were measured and recorded every second day during this period. When mice weighed 11 g (day −2), a blood sample was collected under anesthesia as described below, and a serum IGF-I assay was performed to determine pre-treatment values and to aid in the assigning of mice to treatment groups in order to reduce animal variability. To obtain the blood sample, the animals were anaesthetized with pentobarbital (50 mg/kg i.p.) and non-fasting blood samples collected exactly 5 minutes later from the retrobulbar plexus through heparinized capillary tubes under light ether anesthesia. The 40 animals were placed into five groups with each group having a similar weight average and similar IGF-I average concentration for the trial.
Animals (n=8/group) were designated to the following five treatment groups:
Saline, antisense, mismatch control and octreotide samples were prepared, and coded for blinding. Animals were given a subcutaneous dose of saline every second day, and mismatch control or antisense with administration on days 0, 2, 4, 6. Animals were given twice daily doses of 25 μg octreotide. Animals were housed 4 per cage, for the duration of one week. They had access to a pre-determined quantity of standard mouse food and water at all times throughout the experiment. They were housed in a quiet, temperature- and humidity-maintained environment for the entirety of the study. At day 0 and before treatment on each day or second day, the animals had their body weight and food intake measured, enabling the correct dose of agent to be administered. The animals were monitored closely for any changes in fur, skin, eye, locomotion or other changes in behavior. No problems were observed. Every second day from day −7 to day 7 body weight and food intake were measured.
On day 7, one day after the last dose of antisense, and/or after the last octreotide dose, the animals were anaesthetized with pentobarbital (50 mg/kg i.p.) and non-fasting blood samples collected exactly 5 minutes later from the retrobulbar plexus through heparinized capillary tubes under light ether anesthesia (as on day −7 and 0).
At day −2 and day 7, serum IGF-I measurement was done by radioimmunoassay. Serum IGF-I level is the most widely used measure of growth hormone biological activity in human therapy. It is used to measure the efficacy of growth hormone antagonist treatments like Trovert, which block cells' responsiveness to excess growth hormone, and dopamine agonists and octreotide somatostatin […] drugs that block growth hormone secretion from the pituitary.

Data set [5] relates to serum IGF-I. The experiment in a line: Serum IGF-I, two-week mouse study. Type of data set: in vivo. Conditions: for % decrease relative to 3 mg/kg ISIS 261303: day 14. How it is done: as §1
P-values were determined by t-test.

Data set [6] deals with growth hormone receptor mRNA. In words: Growth hormone receptor mRNA levels in liver, additional 1 week study. Conditions: 50 mg/kg, one-week study. Format: in vivo, mouse. On the procedure:
(§2) Male Balb/C(a) mice were prepared and grouped for analysis as in Example 18 above.
(§3) Animals were treated and serum IGF-I levels were measured as in Example 18 above. Briefly, for the one-week study, mice were given a subcutaneous dose of saline every second day, and mismatch control or antisense with administration on days 0, 2, 4, 6. On day 7, the animals were anaesthetized with pentobarbital and non-fasting blood samples collected exactly 5 minutes later from the retrobulbar plexus through heparinized capillary tubes under light ether anesthesia. Serum IGF-I measurement was done by radioimmunoassay at day 7.
Growth hormone receptor mRNA levels in liver tissue samples from treated and untreated mice in this one-week study were assayed. The growth hormone receptor antisense inhibitor ISIS 227446 reduced growth hormone receptor mRNA levels in liver after the one-week study by 72% at the 50 mg/kg dose, relative to saline control (p<0.0001). The 30 mg/kg dose of ISIS 227446 yielded a 50% decrease in growth hormone receptor mRNA (p<0.0001). The unrelated control oligonucleotide ISIS 260120, at 50 mg/kg, reduced growth hormone receptor mRNA levels by approximately 15% (p>0.05).

For data set [7], the system named is serum IGF-I. In words: Serum IGF-I, additional 1 week study in mice. Type of data set: in vivo, mouse. Conditions: 50 mg/kg once every 2 days, day 7. How it is done: as §2
Animals (n=10/group) were designated to the following treatment groups:
as §3

The mark [8] stands for this setting: 30 mg/kg every second day for one week, liver membranes.

In the oligonucleotide strings, read from the 5' end, every base follows the letter of its sugar. An asterisk marks phosphorothioate; unmarked linkages are phosphodiester. Other units and linkages are bracketed, terminal groups are in braces. A string of capitals states the bases alone. e = 2'-O-(2-methoxyethyl) (MOE); [5mC] = 5-methylcytosine; d = 2'-deoxy (DNA)

For “227520 (antisense e[5mC]*eA*eT*e[5mC]*eT*dT*dA*dA*dT*d[5mC]*d[5mC]*dT*dT*dG*dG*eA*eA*eA*e[5mC]*eA) [compound 227520]”, the “% INHIB” value in data set [1] is 42%.
With “ISIS 261303: negative control oligonucleotide, SEQ ID NO: 267, 8-base mismatch to ISIS 227446 (AGAGAGCTACCTAACTAACA; chemistry not given here) [reference compound]”, the “Specific binding/mg protein (cpm) ¼ dilution” value in data set [2] (setting [8]) amounted to 8431 ± 2663 cpm. For the same substance, the “Specific binding/mg protein (cpm) ½ dilution” value in data set [2] (setting [8]) is on record as 7090 ± 1877 cpm. The “growth hormone receptor levels (growth hormone binding activity), % of control (saline) group” value in data set [2] (30 mg/kg sc every second day for one week) is given as “no effect”. Further, in data set [3], the “decrease in growth hormone receptor mRNA in liver” value is “approximately 3%”. In addition, the entries for the “% IGF-I reduction” value in data set [4] and in data set [4] (listed as Mismatch) were 21% and 20.98%, respectively. Also, the “IGF-I (ng/ml) Day 7” value in data set [4] (30 mg/kg sc once every 2 days (days 0, 2, 4, 6)) was found to be 81.1 ± 19.16 ng/mL. Further, the “IGF-I (ng/ml) Day −2” value in data set [4] (pre-treatment value of the group given 30 mg/kg sc once every 2 days) was determined as 184.87 ± 55.6 ng/mL. In addition, the “Day 14 serum IGF-I” value in data set [5] (3 mg/kg every other day for 14 days) turned out to be 184 ng/mL; in data set [5] (5 mg/kg every other day for 14 days) it was 186 ng/mL; in data set [5] (10 mg/kg every other day for 14 days), 174 ng/mL; in data set [5] (20 mg/kg every other day for 14 days), 164 ng/mL; in data set [5] (30 mg/kg every other day for 14 days), 130 ng/mL. In addition, the “% decrease relative to 3 mg/kg ISIS 261303” value in data set [5] (3 mg/kg) was 0%; in data set [5] (5 mg/kg), 0%; in data set [5] (10 mg/kg), 5%; in data set [5] (20 mg/kg), 11%; in data set [5] (30 mg/kg), 29%.
For the substance “TTACCGTATGGTTCCTCACT (chemistry not given here) [ISIS 260120, unrelated negative control oligonucleotide, reference compound]”, in data set [6], the “reduction of growth hormone receptor mRNA levels in liver relative to saline control” value is on record as “approximately 15%”. Besides, the “reduction of serum IGF-I relative to saline control” value in data set [7] came to 17%. Moreover, in data set [5] (30 mg/kg, 2 weeks), the “effect on serum IGF-I levels seen with the mismatch oligonucleotide” value is given as “not observed”.
